System: 454973-116-R2-J3-PDC complex spheroid viability
Experiment: Anticancer human tumor 454973-116-R2-J3-PDC patient-derived pancreatic carcinoma cell line growth inhibition [POLQ]
Conditions: for IC50: curve of first compound; for viability, T/C: stronger effect = lower value; active = viability on the fitted dose curve at most 10% of control; inactive = the rest
Summary of the method: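 PDC + HUVEC + MSC complex spheroids; POLQ inhibitors ± partner drugs; top conc. at/near clinical Cmax, else 10 microM (SN-38 1 microM), half-log dilutions; 37 degrees C, 5% CO2.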

[1] = second compound 0.0316 µM, first compound 0.0316 µM
[2] = second compound 0.0316 µM, first compound 0.1 µM
[3] = second compound 0.0316 µM, first compound 0.316 µM
[4] = second compound 0.0316 µM, first compound 1 µM
[5] = second compound 0.0316 µM, first compound 3.16 µM
[6] = second compound 0.0316 µM, first compound 10 µM
[7] = second compound 0.1 µM, first compound 0.0316 µM
[8] = second compound 0.1 µM, first compound 0.1 µM
[9] = second compound 0.1 µM, first compound 0.316 µM
[10] = second compound 0.1 µM, first compound 1 µM
[11] = second compound 0.1 µM, first compound 3.16 µM
[12] = second compound 0.1 µM, first compound 10 µM
[13] = second compound 0.316 µM, first compound 0.0316 µM
[14] = second compound 0.316 µM, first compound 0.1 µM
[15] = second compound 0.316 µM, first compound 0.316 µM
[16] = second compound 0.316 µM, first compound 1 µM
[17] = second compound 0.316 µM, first compound 3.16 µM
[18] = second compound 0.316 µM, first compound 10 µM
[19] = second compound 1 µM, first compound 0.0316 µM
[20] = second compound 1 µM, first compound 0.1 µM
[21] = second compound 1 µM, first compound 0.316 µM
[22] = second compound 1 µM, first compound 1 µM
[23] = second compound 1 µM, first compound 3.16 µM
[24] = second compound 1 µM, first compound 10 µM
[25] = second compound 3.16 µM, first compound 0.0316 µM
[26] = second compound 3.16 µM, first compound 0.1 µM
[27] = second compound 3.16 µM, first compound 0.316 µM
[28] = second compound 3.16 µM, first compound 1 µM
[29] = second compound 3.16 µM, first compound 3.16 µM
[30] = second compound 3.16 µM, first compound 10 µM
[31] = second compound 10 µM, first compound 0.0316 µM
[32] = second compound 10 µM, first compound 0.1 µM
[33] = second compound 10 µM, first compound 0.316 µM
[34] = second compound 10 µM, first compound 1 µM
[35] = second compound 10 µM, first compound 3.16 µM
[36] = second compound 10 µM, first compound 10 µM
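Also: spheroids exposed to drugs for seven days before measurement.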
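For viability, T/C in this document: percent viability relative to DMSO vehicle control wells taken as 100%.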

CC1COCCN1c1cc(-c2ccnn2C)c2ccnc(-c3ccn[nH]3)c2n1 (stereo not drawn) + Nc1ccc(C#CCN(C(=O)Cc2ncc(C(F)(F)F)cc2C(F)(F)F)c2ccc(F)cc2)nn1
126 nM: IC50 (second compound 0.0316 µM)
119 nM: IC50 (second compound 0.316 µM) | IC50 (second compound 3.16 µM)
90 nM: IC50 (second compound 10 µM)
109 nM: IC50 (second compound 1 µM)
inactive: viability, T/C [1] 83.6% | viability, T/C [2] 57.6% | viability, T/C [3] 19.8% | viability, T/C [4] 11.3% | viability, T/C [5] 14% | viability, T/C [6] 14.1% | viability, T/C [7] 80.3% | viability, T/C [8] 54.6% | viability, T/C [9] 20.1% | viability, T/C [10] 13.5% | viability, T/C [11] 11.2% | viability, T/C [12] 14.6% | viability, T/C [13] 91% | viability, T/C [14] 55.6% | viability, T/C [15] 19.1% | viability, T/C [16] 9.76% | viability, T/C [17] 12.6% | viability, T/C [18] 14.6% | viability, T/C [19] 90.2% | viability, T/C [20] 52.7% | viability, T/C [21] 16.8% | viability, T/C [22] 11.3% | viability, T/C [23] 13.6% | viability, T/C [24] 14.5% | viability, T/C [25] 88.7% | viability, T/C [26] 55.6% | viability, T/C [27] 18.2% | viability, T/C [28] 11.3% | viability, T/C [29] 9.64% | viability, T/C [30] 11.8% | viability, T/C [31] 92.5% | viability, T/C [32] 45.7% | viability, T/C [33] 17.5% | viability, T/C [34] 10.5% | viability, T/C [35] 10.2% | viability, T/C [36] 13.4%
117 nM: IC50 (second compound 0.1 µM)

CC1COCCN1c1cc(C2(S(C)(=N)=O)CC2)nc(-c2ccnc3[nH]ccc23)n1 (stereo not drawn) + Nc1ccc(C#CCN(C(=O)Cc2ncc(C(F)(F)F)cc2C(F)(F)F)c2ccc(F)cc2)nn1
5250 nM: IC50 (second compound 0.1 µM)
4270 nM: IC50 (second compound 1 µM)
3670 nM: IC50 (second compound 10 µM)
4990 nM: IC50 (second compound 0.0316 µM)
4310 nM: IC50 (second compound 3.16 µM)
inactive: viability, T/C [1] 115% | viability, T/C [2] 104% | viability, T/C [3] 112% | viability, T/C [4] 100% | viability, T/C [5] 68% | viability, T/C [6] 22.5% | viability, T/C [7] 99.5% | viability, T/C [8] 109% | viability, T/C [9] 104% | viability, T/C [10] 97.5% | viability, T/C [11] 70.3% | viability, T/C [12] 24.3% | viability, T/C [13] 109% | viability, T/C [14] 122% | viability, T/C [15] 104% | viability, T/C [16] 95.2% | viability, T/C [17] 64.8% | viability, T/C [18] 20.9% | viability, T/C [19] 110% | viability, T/C [20] 111% | viability, T/C [21] 109% | viability, T/C [22] 109% | viability, T/C [23] 61.6% | viability, T/C [24] 17.3% | viability, T/C [25] 116% | viability, T/C [26] 106% | viability, T/C [27] 108% | viability, T/C [28] 105% | viability, T/C [29] 59.9% | viability, T/C [30] 23.1% | viability, T/C [31] 122% | viability, T/C [32] 114% | viability, T/C [33] 113% | viability, T/C [34] 111% | viability, T/C [35] 55% | viability, T/C [36] 15.5%
4650 nM: IC50 (second compound 0.316 µM)

COc1ccc([C@@H](O)c2cc(-c3ncnc4cc(N5CCOCC5)ccc34)c(F)cc2Cl)nn1 + Nc1ccc(C#CCN(C(=O)Cc2ncc(C(F)(F)F)cc2C(F)(F)F)c2ccc(F)cc2)nn1
> 10000 nM: IC50 (second compound 0.0316 µM) | IC50 (second compound 0.1 µM) | IC50 (second compound 0.316 µM) | IC50 (second compound 1 µM) | IC50 (second compound 3.16 µM) | IC50 (second compound 10 µM)
inactive: viability, T/C [1] 107% | viability, T/C [2] 107% | viability, T/C [3] 96.9% | viability, T/C [4] 86.9% | viability, T/C [5] 66.3% | viability, T/C [6] 53.5% | viability, T/C [7] 106% | viability, T/C [8] 96.1% | viability, T/C [9] 108% | viability, T/C [10] 90.3% | viability, T/C [11] 69.2% | viability, T/C [12] 49.8% | viability, T/C [13] 107% | viability, T/C [14] 107% | viability, T/C [15] 102% | viability, T/C [16] 85.8% | viability, T/C [17] 73.9% | viability, T/C [18] 52.4% | viability, T/C [19] 107% | viability, T/C [20] 106% | viability, T/C [21] 104% | viability, T/C [22] 92.3% | viability, T/C [23] 79.4% | viability, T/C [24] 59.9% | viability, T/C [25] 102% | viability, T/C [26] 107% | viability, T/C [27] 116% | viability, T/C [28] 93.9% | viability, T/C [29] 68.5% | viability, T/C [30] 56.5% | viability, T/C [31] 120% | viability, T/C [32] 119% | viability, T/C [33] 118% | viability, T/C [34] 93.7% | viability, T/C [35] 80.3% | viability, T/C [36] 64.4%

Cn1ncnc1[C@H]1c2n[nH]c(=O)c3cc(F)cc(c23)N[C@@H]1c1ccc(F)cc1 + Nc1ccc(C#CCN(C(=O)Cc2ncc(C(F)(F)F)cc2C(F)(F)F)c2ccc(F)cc2)nn1
> 100 nM: IC50 (second compound 0.0316 µM) | IC50 (second compound 0.1 µM) | IC50 (second compound 0.316 µM) | IC50 (second compound 1 µM) | IC50 (second compound 3.16 µM) | IC50 (second compound 10 µM)
inactive: viability, T/C (second compound 0.0316 µM, first compound 0.000316 µM) 107% | viability, T/C (second compound 0.0316 µM, first compound 0.001 µM) 93.9% | viability, T/C (second compound 0.0316 µM, first compound 0.00316 µM) 98% | viability, T/C (second compound 0.0316 µM, first compound 0.01 µM) 90.9% | viability, T/C [1] 93.6% | viability, T/C [2] 82.3% | viability, T/C (second compound 0.1 µM, first compound 0.000316 µM) 108% | viability, T/C (second compound 0.1 µM, first compound 0.001 µM) 104% | viability, T/C (second compound 0.1 µM, first compound 0.00316 µM) 96.7% | viability, T/C (second compound 0.1 µM, first compound 0.01 µM) 98.9% | viability, T/C [7] 97.2% | viability, T/C [8] 79.9% | viability, T/C (second compound 0.316 µM, first compound 0.000316 µM) 105% | viability, T/C (second compound 0.316 µM, first compound 0.001 µM) 102% | viability, T/C (second compound 0.316 µM, first compound 0.00316 µM) 102% | viability, T/C (second compound 0.316 µM, first compound 0.01 µM) 92.3% | viability, T/C [13] 101% | viability, T/C [14] 89.2% | viability, T/C (second compound 1 µM, first compound 0.000316 µM) 109% | viability, T/C (second compound 1 µM, first compound 0.001 µM) 105% | viability, T/C (second compound 1 µM, first compound 0.00316 µM) 108% | viability, T/C (second compound 1 µM, first compound 0.01 µM) 105% | viability, T/C [19] 91.6% | viability, T/C [20] 82.9% | viability, T/C (second compound 3.16 µM, first compound 0.000316 µM) 111% | viability, T/C (second compound 3.16 µM, first compound 0.001 µM) 116% | viability, T/C (second compound 3.16 µM, first compound 0.00316 µM) 102% | viability, T/C (second compound 3.16 µM, first compound 0.01 µM) 100% | viability, T/C [25] 96.3% | viability, T/C [26] 84.7% | viability, T/C (second compound 10 µM, first compound 0.000316 µM) 112% | viability, T/C (second compound 10 µM, first compound 0.001 µM) 109% | viability, T/C (second compound 10 µM, first compound 0.00316 µM) 117% | viability, T/C (second compound 10 µM, first compound 0.01 µM) 107% | viability, T/C [31] 113% | viability, T/C [32] 95.8%

Source: PubChem BioAssay AID1963846 (Molecular Pharmacology Branch, DTP, NCI, 2024)
